The results in this text go back to US20120100227A1, “KINASE PROTEIN BINDING INHIBITORS” (University of Florida Research Foundation, priority 2009, published 2012).

In data set [1] the target is T1, complex of FAK and Mdm-2 in BT474 cells (Homo sapiens, UniProt Q05397).
T1 construct: We immunoprecipitated FAK and found complex of FAK with Mdm-2; endogenous in cells; host or cells: BT474 breast cancer cells
Nature of the data set: Immunoprecipitation of FAK, complex with Mdm-2. Details: dose or concentration left out as unconfirmed. The data set is classed as cell-based. Here is the method:
Immunoprecipitation. Immunoprecipitation was performed according to the standard protocol. In brief, the pre-cleared lysates with equal amount of protein were incubated with 1 μg of primary antibody and 30 μl A/G agarose beads overnight at 4° C. The precipitates were washed with lysis buffer three times and re-suspended in 2×Laemmli buffer. The boiled samples were used for Western blotting, as described above.
M13 disrupts complex of FAK and Mdm-2 in BT474 cells. We immunoprecipitated FAK and found complex of FAK with Mdm-2, confirming and reproducing data of Lim et al, Molecular Cell, 2008. At […] dose of M13, there was decreased level of FAK and complex with Mdm-2.

The subject of data set [2] is colon cancer HCT116 p53+/+ cells. Nature of the data set: Apoptosis assay, HCT116 p53+/+. In kind it is cell-based, human. As to conditions: dose-dependent. The protocol: (§1) Apoptosis Assay. Detached cells were collected and fixed in 3.7% formaldehyde in 1×PBS solution for the apoptosis assay. Detection of apoptosis was done with Hoechst 33342 staining. The percent of apoptotic cells was calculated as a ratio of apoptotic detached cells divided by the total number of cells in three independent experiments in several fields with the fluorescent microscope. For each experiment 300 cells per treatment were counted.
(§2) To study M13 effect in colon cancer cells and its dependence on p53 pathway, we did similar experiments to BT474 cells with colon cancer HCT116 p53−/− and p53+/+ cells. […] Thus, the in vitro effect of M13 on viability, detachment and apoptosis was p53-independent.

For data set [3], the system named is different cancer cells, including breast, melanoma, colon and pancreatic cancers. Nature of the data set: MTT cell viability assay in different cancer cells. In kind it is cell-based, human. The note with it: MTT assay with 24 M inhibitors, M13 the best of all tested. Here is the method:
(§3) Cell Viability Assay. The cells were treated with compounds at different concentrations for 24 hours. The 3-(4,5-dimethylthiazol-2-yl)-5-(3-carboxymethoxyphenyl)-2-(4-sulfophenyl)-2H-tetrazolium compound from Promega Viability kit (Madison, Ill.) was added, and the cells were incubated at 37 C for 1-2 hours. The optical density on 96-plate was analyzed with a microplate reader at 490 nm to determine cell viability.
The name of this compound is Monotritylthymidine and it is available and was ordered from Sigma.

The subject of data set [4] is colon cancer HCT116 p53+/+ cells. Nature of the data set: Cell viability assay, HCT116 p53+/+. The data set is classed as cell-based, human. As to conditions: dose-dependent. Here is the method: (§4) Cell lines and culture. BT474 breast carcinoma cells were maintained in RPMI1640 medium supplemented with 10% fetal bovine serum (FBS), 5 μg/ml insulin, and 1 μg/ml penicillin/streptomycin. The MCF-7 cell line was obtained from ATCC and maintained according to the manufacturer's protocol. HCT116p53+/+ and p53−/− colon cancer cells were maintained in McCoy's5A medium with 10% FBS.
as §3, §2

The subject of data set [5] is BT474 cells. Kind of data set: Western blotting of BT474 cells (FAK, Y397-FAK, Mdm-2, p53, caspase-8). In kind it is cell-based, human. As to conditions: BT474, different doses of M13, Western blot. Here is the method:
Western Blotting. Cells or homogenized tumor samples were washed twice with cold 1×PBS and lysed on ice for 30 minutes in a buffer containing: 50 mM Tris-HCl (pH 7.5), 150 mM NaCl, 1% Triton-X, 0.5% NaDOC, 0.1% SDS, 5 mM EDTA, 50 mM NaF, 1 mM NaVO3, 10% glycerol and protease inhibitors: 10 μg/ml leupeptin, 10 μg/ml PMSF and 1 μg/m1 aprotinin. The lysates were cleared by centrifugation at 10,000 rpm for 30 minutes at 4° C. Protein concentrations were determined using a Bio-Rad Kit. The boiled samples were loaded on Ready SDS-10% PAGE gels (Bio Rad, Inc) and used for Western blot analysis with the protein-specific antibody. Immunoblots were developed with chemiluminescence Renaissance reagent (NEN Life Science Products, Inc). For quantification, densitometry of protein bands was performed with NIH Scion Image software.
M13 caused dose-dependent increase of Mdm-2, decrease of FAK and activation of caspase-8 in BT474 cells. We treated BT474 cells with different doses of M13 and performed Western blotting with anti-FAK, Y397-FAK, Mdm-2, p53 and caspase-8 antibodies.
On the technique in general: A western blot detects proteins with antibodies after separation by electrophoresis.

The subject of data set [6] is colon cancer HCT116 p53+/+ cells. Kind of data set: Detachment assay, HCT116 p53+/+. The data set is classed as cell-based, human. As to conditions: dose-dependent. Here is the method:
(§5) Detachment Assay. Cells were plated with and without inhibitors for 24 hours, and detached and attached cells were counted in a hemocytometer. We calculated the percent of detachment by dividing the number of detached cells by the total number of cells. The percent of detached cells was calculated in three independent experiments.
as §2

Data set [7] relates to colon cancer HCT116 p53−/− cells. Kind of data set: Apoptosis assay, HCT116 p53−/−. The data set is classed as cell-based, human. As to conditions: dose-dependent. The protocol:
as §1, §2

For data set [8], the system named is HCT116p53−/− cells. Nature of the data set: Tumor growth in nude mice, HCT116 p53−/−. In kind it is in vivo. The note with it: HCT116 p53−/− subcutaneous tumors, 30 mg/kg IP; no significant difference to p53+/+. Here is the method:
(§6) Tumor Growth in Nude Mice in vivo. Female nude mice, 6 weeks old, were purchased from Harlan Laboratory. The mice were maintained in the animal facility and all experiments were performed in compliance with NIH animal-use guidelines and IACUC protocol approved by the UF Animal Care Committee. BT474 cells were injected, 2×10^6 cells/injection subcutaneously. HCT116p53−/− and HCT116p53+/+ cells were injected subcutaneously into the left and right side of the same mice to decrease variations. In preliminary experiment different doses of the compound were introduced into the mice, and 30-50 mg/kg was chosen as optimal, non-toxic doses. The day after injection, the M13 compound was introduced by IP injection at 30 mg/kg dose daily 5 days/week for 3 weeks. Tumor diameters were measured with calipers and tumor volume in mm^3 was calculated using this formula=(width)^2×Length/2. At the end of experiment, tumor weight and volume was determined.
(§7) M13 decreased similarly colon tumorigenesis in both HCT116 p53+/+ and p53−/− in vivo. […] Thus, in vivo effect of M13 on tumorigenesis is p53-independent.

In data set [9] the test system is BT474 breast cancer cells. Kind of data set: Detachment assay, BT474. The data set is classed as cell-based, human. As to conditions: BT474, 24 hours. The protocol: as §5
Data set [10] relates to MCF-7 breast cancer cells. Kind of data set: Viability, detachment and apoptosis, MCF-7. As to conditions: MCF-7, compared with BT474. In kind it is cell-based, human. Here is the method: as §4, §3, §5
Apoptosis Assay. […] The percent of apoptotic cells was calculated as a ratio of apoptotic detached cells divided by the total number of cells in three independent experiments in several fields with the fluorescent microscope. […]

Data set [11] concerns BT474 breast cancer cells. Nature of the data set: Cell viability (MTT) assay, BT474. The data set is classed as cell-based, human. The note with it: different concentrations, 24 hours. Here is the method:
as §4, §3

Data set [12] relates to BT474 cells. Nature of the data set: Tumor growth in nude mice, BT474. As to conditions: BT474 subcutaneous tumors, 30 mg/kg IP daily 5 days/week for 3 weeks. In kind it is in vivo. Here is the method:
as §6
M13 decreased breast tumorigenesis in vivo Breast cancer BT474 cells were implanted into the mice to generate tumors.

The test system of data set [13] is colon cancer HCT116 p53−/− cells. Kind of data set: Cell viability assay, HCT116 p53−/−. The data set is classed as cell-based, human. As to conditions: dose-dependent. Here is the method:
as §4, §3, §2

Data set [14] deals with BT474 breast cancer cells. Kind of data set: Apoptosis assay (Hoechst 33342), BT474. The note with it: BT474, Hoechst 33342 staining of detached cells. The data set is classed as cell-based, human. The protocol: as §1
Data set [15] has as its system colon cancer HCT116 p53−/− cells. Nature of the data set: Detachment assay, HCT116 p53−/−. The data set is classed as cell-based, human. The note with it: dose-dependent. Here is the method: as §5, §2
Details of data set [16]: species or system nude mice. As to conditions: female, nude, mouse, in vivo. The protocol:
as §6

For data set [17], the system named is HCT116p53+/+ cells. Nature of the data set: Tumor growth in nude mice, HCT116 p53+/+. The data set is classed as in vivo. The note with it: HCT116 p53+/+ subcutaneous tumors, 30 mg/kg IP; no significant difference to p53−/−. Here is the method: as §6, §7

Molecules are shown by their SMILES.

T1 sequence (Q05397 whole entry, one chain of several): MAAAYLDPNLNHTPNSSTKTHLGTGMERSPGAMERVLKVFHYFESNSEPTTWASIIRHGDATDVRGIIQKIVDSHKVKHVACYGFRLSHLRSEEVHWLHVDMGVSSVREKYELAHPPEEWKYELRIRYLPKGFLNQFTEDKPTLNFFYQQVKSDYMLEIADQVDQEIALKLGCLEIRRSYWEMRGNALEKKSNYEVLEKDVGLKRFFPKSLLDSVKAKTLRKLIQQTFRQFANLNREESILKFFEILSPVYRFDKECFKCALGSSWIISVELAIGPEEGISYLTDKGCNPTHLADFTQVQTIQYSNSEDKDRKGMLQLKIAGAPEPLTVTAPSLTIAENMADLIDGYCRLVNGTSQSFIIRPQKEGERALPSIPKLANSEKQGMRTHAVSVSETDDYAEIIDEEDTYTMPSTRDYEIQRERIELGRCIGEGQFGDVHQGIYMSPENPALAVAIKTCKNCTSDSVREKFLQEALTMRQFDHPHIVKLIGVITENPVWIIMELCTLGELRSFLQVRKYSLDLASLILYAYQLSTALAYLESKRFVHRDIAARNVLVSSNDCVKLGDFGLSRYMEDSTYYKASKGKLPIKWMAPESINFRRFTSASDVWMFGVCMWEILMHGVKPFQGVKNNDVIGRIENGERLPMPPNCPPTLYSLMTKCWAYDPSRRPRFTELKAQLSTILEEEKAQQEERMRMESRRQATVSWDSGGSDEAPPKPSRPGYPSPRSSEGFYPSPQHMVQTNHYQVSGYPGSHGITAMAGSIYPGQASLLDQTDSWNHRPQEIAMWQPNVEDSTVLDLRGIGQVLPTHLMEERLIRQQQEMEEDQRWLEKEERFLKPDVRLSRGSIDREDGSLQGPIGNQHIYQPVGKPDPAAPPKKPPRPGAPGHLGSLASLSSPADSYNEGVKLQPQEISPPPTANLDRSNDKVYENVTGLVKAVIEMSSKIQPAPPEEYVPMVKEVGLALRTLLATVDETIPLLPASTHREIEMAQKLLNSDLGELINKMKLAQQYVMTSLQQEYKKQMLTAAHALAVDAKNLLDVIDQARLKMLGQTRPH

For the molecule `Cc1cn(C2CC(O)C(COC(c3ccccc3)(c3ccccc3)c3ccccc3)O2)c(=O)[nH]c1=O` (stereo not shown) [M13, 1-[4-hydroxy-5-[tri(phenyl)methoxymethyl]oxolan-2-yl]-5-methylpyrimidine-2,4-dione], the “association of FAK and Mdm-2 (complex)” value in [1] is “decreased association of FAK and Mdm-2”. In addition, the apoptosis entry in [2] is “increased detachment and apoptosis”; in [7], “increased detachment and apoptosis”; in data set [14], “dose-dependent increase detachment and apoptosis”. In [3], the “viability of cancer cells” value is listed as “significantly decreased viability of most cancer cells”. Moreover, the results for the viability entry in data set [4], in data set [11] and in data set [13] were “equally decreased viability”, “decreased viability of BT474 breast cancer cells in a dose-dependent manner” and “equally decreased viability”, respectively. Moreover, in data set [5], the FAK levels entry was “decreased FAK levels”. In addition, the Mdm-2 levels entry in [5] is reported as “increased Mdm-2 levels”. For the same molecule, the “activation of caspase-8” value in data set [5] was “caused activation of caspase-8”. Moreover, the detachment entry was “increased detachment” in data set [6], “dose-dependent increase detachment” in data set [9] and “increased detachment” in data set [15]. For the same molecule, the tumor size result in [8] and in [17] was “decrease of tumor size” throughout. In addition, the “effect on viability, detachment and apoptosis” value in data set [10] was “the same as with BT474 cells”. In [12], the “breast tumorigenesis in vivo” value was “effectively decreased breast tumorigenesis”. In [16], the “optimal, non-toxic doses” value fell in the range of 30 to 50 mg/kg.
